The record followed here is patent US20230149516A1, “USE OF PEPTIDYLGLYCINE ALPHA-AMIDATING MONOOXYGENASE (PAM) FOR THERAPEUTIC PURPOSE” (PAM THERAGNOSITICS GMBH, priority 2020, published 2023).

For series [1], the target named is T1, adrenomedullin-Gly (ADM-Gly) (UniProt P35318).
T1 sequence: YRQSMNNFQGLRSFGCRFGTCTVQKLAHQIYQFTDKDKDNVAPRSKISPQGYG

The test system of series [2] is bio-ADM. The series is described as follows: Circulating bio-ADM concentration in rats after intravenous injection of PAM, ascorbate or both. Type of series: in vivo, Wistar rats.
Series [3] has as its system PAM activity. The series is described as follows: Circulating PAM activity in rats after intravenous injection of PAM, ascorbate or both, measured without exogenous ascorbate. The class given is in vivo, Wistar rats.
The target in series [4] is T2, circulating human PAM activity (Homo sapiens, UniProt P19021).
T2 construct: Human serum or Li-Heparin plasma from self-reported healthy volunteers was used as source of human native PAM; from tissue; host or cells: Li-heparin plasma and serum of healthy human volunteers
T2 sequence (P19021 31-973): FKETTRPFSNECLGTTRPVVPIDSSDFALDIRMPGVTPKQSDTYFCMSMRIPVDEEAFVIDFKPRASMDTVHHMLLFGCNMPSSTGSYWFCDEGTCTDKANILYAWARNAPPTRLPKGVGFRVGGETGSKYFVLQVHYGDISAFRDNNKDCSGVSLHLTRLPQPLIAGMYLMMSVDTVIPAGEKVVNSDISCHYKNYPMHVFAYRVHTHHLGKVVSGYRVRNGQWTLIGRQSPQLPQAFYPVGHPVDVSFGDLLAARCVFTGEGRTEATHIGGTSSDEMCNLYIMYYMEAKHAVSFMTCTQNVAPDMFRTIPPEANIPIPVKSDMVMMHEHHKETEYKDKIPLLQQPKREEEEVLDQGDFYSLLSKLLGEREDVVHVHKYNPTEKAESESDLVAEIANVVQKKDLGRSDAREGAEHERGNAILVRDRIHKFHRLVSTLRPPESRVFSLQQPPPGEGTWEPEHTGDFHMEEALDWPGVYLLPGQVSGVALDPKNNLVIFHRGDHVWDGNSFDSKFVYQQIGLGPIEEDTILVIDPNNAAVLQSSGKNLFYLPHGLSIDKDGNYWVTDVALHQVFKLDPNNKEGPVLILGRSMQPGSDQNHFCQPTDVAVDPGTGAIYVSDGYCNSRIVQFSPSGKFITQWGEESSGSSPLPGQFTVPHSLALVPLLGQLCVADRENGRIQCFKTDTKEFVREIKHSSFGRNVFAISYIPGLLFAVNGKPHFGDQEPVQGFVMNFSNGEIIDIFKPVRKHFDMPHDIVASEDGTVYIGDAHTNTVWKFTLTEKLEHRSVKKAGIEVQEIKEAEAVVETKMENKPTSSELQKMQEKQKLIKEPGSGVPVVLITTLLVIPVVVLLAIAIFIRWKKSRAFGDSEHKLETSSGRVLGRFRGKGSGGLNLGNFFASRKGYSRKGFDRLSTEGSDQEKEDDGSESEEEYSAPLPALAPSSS
The series is described as follows: Amidating activity in healthy human volunteers after oral ascorbate uptake, measured without exogenous ascorbate. Type of series: in vivo. Particulars: 2000 mg oral single dose. The protocol:
FIG. 23: Amidating activity in healthy human volunteers before (0 h) and after oral ascorbate uptake measured without addition of exogenous ascorbate. AMA at t=0 h was set as 100%.
Human serum or Li-Heparin plasma from self-reported healthy volunteers was used as source of human native PAM. Each sample (20 μl) was diluted two-fold in 100 mM Tris-HCl in duplicate. The amidation reaction was initiated by addition of 160 μl of PAM-reaction buffer (100 mM Tris-HCl, pH 7.5, 6.25 μM CuSO4, 2.5 mM L-ascorbate, 125 μg/mL catalase, 62.5 μM amastatin, 250 μM leupeptin, 36 ng/mL synthetic ADM-Gly and 375 μg/mL NT-ADM antibody). Afterwards, 100 μl of each individual reaction of duplicated samples were combined and transferred into 20 μl of 200 mM EDTA to terminate the amidation reaction and to generate t=0 minutes reaction time-point followed by incubation at 37° C. for 40 minutes. Afterwards the non-terminated reactions were stopped with 10 μl of 200 mM EDTA. To determine the PAM activity, bio-ADM as reaction product was quantified in each sample using the Sphingotest® bio-ADM immunoassay (Weber et al. 2017). The amidation assay was calibrated using a 6-point calibration curve generated with human recombinant PAM of known activity. Samples and calibrators were treated in the same manner. Relative light units (RLU t40 min-t0 min) determined via Sphingotest® bio-ADM immunoassay for each sample were fitted against the RLU (t40 min-t0 min) of the calibrator to determine the PAM activity in the samples. PAM activity is described as “adrenomedullin maturation activity” (AMA) in μg bio-ADM formed per hour and L of sample.
Healthy volunteers (n=4) received 2000 mg of vitamin C (Dr. Scheffler, Additiva® Vitamin C) as an oral single dose. Blood sampling was performed prior to- and 1, 2 and 3 hours post administration. Basal amidating activity was determined from Li-heparin plasma and serum as described in example 3 in absence of exogenous ascorbate addition and is shown in FIG. 23.

For series [5], the target named is T3, adrenomedullin-Gly (ADM-Gly), P35318.
T3 chain: T1 sequence

Regarding “native human PAM in human plasma or serum”, in series [1], the “formation of bio-ADM (Sphingotest bio-ADM immunoassay) in human Li-Heparin plasma” value is “When ADM-Gly was added to the sample, a linear formation of bio-ADM was detected within 90 minutes” and the “formation of bio-ADM from endogenous ADM-Gly in human Li-Heparin plasma” value is “endogenous human PAM enzyme is capable of the conversion of endogenous human ADM-Gly to bioADM in a time-dependent manner”.
In the case of `O=C1O[C@H]([C@@H](O)CO)C(O)=C1O` [Ascorbate, vitamin C, reference compound], the “bio-ADM concentration elevated by the factor (normalized to placebo)” value is on record as 1.4 in series [2] (after 15 min), 1.4 in series [2] (after 30 min), 1.2 in series [2] (after 45 min) and “returned to baseline levels” in series [2] (after 60 min). Further, the “bio-ADM concentration compared to the Placebo group” value in series [2] (after 120 minutes) is on record as “not significantly different”. Further, the “PAM activity compared to placebo group” value in series [3] (120 min past injection) is “comparable to PAM activity in the placebo group”. Also, the “time of maximal elevation of PAM activity past injection” value in series [3] (single i.v. injection) amounted to 15 min. Also, the “elevation of circulating PAM activity” value in series [3] (single i.v. injection of 500 μl (PAM 50 μg/mL, ascorbate 40 mg/mL), vs placebo) is recorded as “non-significant elevation”. Moreover, in series [3] (single i.v. injection, significantly elevated for PAM and the combination), the “time PAM activity remained elevated after injection” value stood at 60 min. The “PAM activity elevated by the factor compared to prior to ascorbate uptake” value in series [4] (1 h after uptake) is listed as 1.7; in series [4] (2 h post uptake), around 2; in series [4] (3 h post uptake), around 2.

B1: recombinant human PAM (peptidylglycine alpha-amidating monooxygenase, amino acids 21-834, C-terminal hexa-histidine tag linked via a GS linker) (protein)
chain: SPLSVFKRFKETTRPFSNECLGTTRPVVPIDSSDFALDIRMPGVTPKQSDTYFCMSMRIPVDEEAFVIDFKPRASMDTVHHMLLFGCNMPSSTGSYWFCDEGTCTDKANILYAWARNAPPTRLPKGVGFRVGGETGSKYFVLQVHYGDISAFRDNNKDCSGVSLHLTRLPQPLIAGMYLMMSVDTVIPAGEKVVNSDISCHYKNYPMHVFAYRVHTHHLGKVVSGYRVRNGQWTLIGRQSPQLPQAFYPVGHPVDVSFGDLLAARCVFTGEGRTEATHIGGTSSDEMCNLYIMYYMEAKHAVSFMTCTQNVAPDMFRTIPPEANIPIPVKSDMVMMHEHHKETEYKDKIPLLQQPKREEEEVLDQGDFYSLLSKLLGEREDVVHVHKYNPTEKAESESDLVAEIANVVQKKDLGRSDAREGAEHERGNAILVRDRIHKFHRLVSTLRPPESRVFSLQQPPPGEGTWEPEHTGDFHMEEALDWPGVYLLPGQVSGVALDPKNNLVIFHRGDHVWDGNSFDSKFVYQQIGLGPIEEDTILVIDPNNAAVLQSSGKNLFYLPHGLSIDKDGNYWVTDVALHQVFKLDPNNKEGPVLILGRSMQPGSDQNHFCQPTDVAVDPGTGAIYVSDGYCNSRIVQFSPSGKFITQWGEESSGSSPLPGQFTVPHSLALVPLLGQLCVADRENGRIQCFKTDTKEFVREIKHSSFGRNVFAISYIPGLLFAVNGKPHFGDQEPVQGFVMNFSNGEIIDIFKPVRKHFDMPHDIVASEDGTVYIGDAHTNTVWKFTLTEKLEHRSVKKAGIEVQEIKEAEAVVGSHHHHHH
With B1, the bio-ADM synthesis rate result in series [5] is recorded as “by an averaged factor of 1.8 at each time-point”.
